From publication PMC12269599, “Analysis of chondroitin degradation by components of a Bacteroides caccae polysaccharide utilization locus” (The Journal of Biological Chemistry, 2025)
Blank lines part the entries; values can stand above or below the compound they belong to.

Key:
BcGH88 = target: T1, BcGH88 (Bacteroides caccae, UniProt A0A413IVG2); experiment: loss of absorbance at […] nm; assay type: biochemical; settings: only kcat/Km determined; 100 mM Tris pH 7.4, 37 °C
T1 construct: residues 31-433, N-terminal His6 tag with thrombin site, E. coli
T1 sequence (A0A413IVG2 31-433): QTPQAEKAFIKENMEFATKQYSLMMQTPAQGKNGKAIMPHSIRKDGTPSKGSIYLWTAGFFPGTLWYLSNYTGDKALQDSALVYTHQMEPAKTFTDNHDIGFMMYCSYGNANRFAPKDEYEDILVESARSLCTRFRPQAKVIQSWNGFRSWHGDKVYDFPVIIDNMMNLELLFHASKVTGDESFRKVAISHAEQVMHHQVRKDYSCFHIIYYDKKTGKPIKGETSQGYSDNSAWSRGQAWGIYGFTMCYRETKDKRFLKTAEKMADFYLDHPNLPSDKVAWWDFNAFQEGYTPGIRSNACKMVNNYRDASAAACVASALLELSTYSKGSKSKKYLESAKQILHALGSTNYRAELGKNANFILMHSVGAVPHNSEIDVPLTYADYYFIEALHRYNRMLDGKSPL

BcGDH (GH154, BcGH154) = target: T2, BcGDH (GH154, BcGH154) (Bacteroides caccae, UniProt I9ECR6); experiment: absorbance at […] nm; LC-ESI-MS of product; assay type: biochemical; settings: dehydration to 4,5-unsaturated product; only kcat/Km determined; 100 mM Tris pH 7.4, 25 °C
T2 construct: gene HMPREF1061_03832; residues 24-423, N-terminal His6-thrombin tag (cleaved for crystallography), E. coli, homotetramer; site completed by Y401 of a neighbouring monomer
T2 sequence (I9ECR6 24-423): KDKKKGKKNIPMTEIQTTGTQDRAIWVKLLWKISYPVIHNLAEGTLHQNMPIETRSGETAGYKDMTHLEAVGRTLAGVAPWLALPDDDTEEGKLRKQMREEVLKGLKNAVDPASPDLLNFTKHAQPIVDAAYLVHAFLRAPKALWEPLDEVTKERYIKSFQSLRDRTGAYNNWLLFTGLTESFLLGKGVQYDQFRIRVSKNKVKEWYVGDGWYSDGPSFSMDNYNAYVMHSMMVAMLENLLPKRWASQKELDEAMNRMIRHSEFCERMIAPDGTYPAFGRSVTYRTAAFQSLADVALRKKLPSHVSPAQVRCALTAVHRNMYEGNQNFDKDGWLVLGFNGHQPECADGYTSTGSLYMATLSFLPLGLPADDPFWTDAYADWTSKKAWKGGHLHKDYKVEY

[1] = target: BcGDH (β-D-glucuronate dehydratase from Bacteroides caccae PUL25, previously classified as GH154) (Bacteroides caccae (strain ATCC 43185)); experiment: crystal structure; unliganded BcGDH, spacegroup P2_(1), tetramer in the asymmetric unit; crystals at 18 °C from 26 g/L protein, 220 mM KCl, 24% PEG 3350; the same tetramer seen in four further unrefined crystal forms
[2] = target: BcGDH R285A mutant (Bacteroides caccae (strain ATCC 43185)); experiment: crystal structure; BcGDH R285A soaked in 50 mM chondrosine, spacegroup P2_(1)2_(1)2_(1), tetramer in the asymmetric unit; 18 g/L protein, 0.25 M sodium iodide, 5 to 13% glycerol, 8 to 13% PEG 3350

Compound: CC(=O)N[C@H]1C(O)O[C@H](CO)[C@H](O)[C@@H]1O[C@@H]1OC(C(=O)O)=C[C@H](O)[C@H]1O (some centres unmarked) [CSΔ0S]
loss of absorbance at 232 nm (BcGH88): BcGH88 had activity on CSΔ0S and CSΔ6S with kcat/Km values

Compound: CC(=O)N[C@H]1C(O)O[C@H](COS(=O)(=O)O)[C@H](O)[C@@H]1O[C@@H]1OC(C(=O)O)=C[C@H](O)[C@H]1O (some centres unmarked) [CSΔ6S]
loss of absorbance at 232 nm (BcGH88): BcGH88 had activity on CSΔ0S and CSΔ6S with kcat/Km values

Compound: N[C@H]1C(O)O[C@H](CO)[C@H](O)[C@@H]1O[C@@H]1O[C@H](C(=O)O)[C@@H](O)[C@H](O)[C@H]1O (some centres unmarked) [chondrosine]
absorbance at 232 nm; LC-ESI-MS of product (BcGDH (GH154, BcGH154)): The absorbance increased in a time-dependent manner, with the rate of increase dependent upon the chondrosine

stoichiometry N [1]: 4
Compound: BcGDH (β-D-glucuronate dehydratase from Bacteroides caccae PUL25, previously classified as GH154) (enzyme)

stoichiometry N [2]: 4
Compound: BcGDH R285A mutant (enzyme)
